“And” between values parts separate entries of the source, which are not always exact repeats. Equal values may be shown once. Read-outs that look alike come from different tables or passages of the source.
Legend:
[1] = system: human protein tyrosyl-DNA phosphodiesterase 1 (TDP1); parameters: method as in ref 29 = [29]; 29. NCBI, National Center for Biotechnology Information PubChem BioAssay Database 2013 AID=686981 Available online: https://pubchem.ncbi.nlm.nih.gov/bioassay/686981 (accessed on 30 March 2016); details: qHTS, DT40 cell line, in words; cited from earlier work
MCF-7 [2] = assay: Clonogenicity (recovery) assay, 72 h post-treatment, SRB; details: for percentage of recovery: 72 h post-treatment; for effect on proliferation and recovery after treatment: in words
BT-549 [3] = details: for percentage of survival: 72 h; for Potency compared to control POD: BT-549, relative to POD; for Potency compared to control VP-16: BT-549, relative to VP-16; for IC50: read-out: Cytotoxic activity IC50, BT-549, 72 h, mean of three independent experiments ± S.D.; for Selectivity index: IC50 MCF-10A / IC50 BT-549
anthrax lethal toxin = details: qHTS, ME-180 cells, in words; cited from earlier work
MCF-7 [4] = details: for Selectivity index: IC50 MCF-10A / IC50 MCF-7; for percentage of survival: 72 h; for Potency compared to control POD: MCF-7, relative to POD; for Potency compared to control VP-16: MCF-7, relative to VP-16; for IC50: read-out: Cytotoxic activity IC50, MCF-7, 72 h, mean of three independent experiments ± S.D.
MDA-MB-231 [5] = details: for Selectivity index: IC50 MCF-10A / IC50 MDA-MB-231; for percentage of survival: 72 h; for Potency compared to control POD: MDA-MB-231, relative to POD; for Potency compared to control VP-16: MDA-MB-231, relative to VP-16; for IC50: read-out: Cytotoxic activity IC50, MDA-MB-231, 72 h, mean of three independent experiments ± S.D.
BT-549 [6] = assay: Clonogenicity (recovery) assay, 72 h post-treatment, SRB; details: for percentage of recovery: 72 h post-treatment; for effect on proliferation and recovery after treatment: in words
MCF-10A [7] = details: for percentage of survival: 0.08 µg/mL, 72 h; for Potency compared to control POD: relative to POD; for Potency compared to control VP-16: relative to VP-16
in vitro = details: human
MCF-10A [8] = assay: Clonogenicity (recovery) assay, 72 h post-treatment, SRB; details: for percentage of recovery: 0.08 µg/mL, 72 h post-treatment; for effect on proliferation and recovery after treatment: in words
MDA-MB-231 [9] = assay: as above; details: for percentage of recovery: 72 h post-treatment; for effect on proliferation and recovery after treatment: in words
[10] = system: MCF-7, MDA-MB-231, BT-549, and MCF-10A; assay: Cytotoxicity, clonogenicity and selectivity over the panel of breast cell lines; type: cell-based, human; details: in words, SI ≥ 10 selective
[11] = Water solubility (observation in culture medium); type: physicochemical; details: in words
[12] = Cytotoxic activity IC50, MCF-10A, 72 h, mean of three independent experiments ± S.D.

| Compound | percentage of recovery (MCF-7 [2]; MCF-7, 0.08 µg/mL) | effect on proliferation and recovery after treatment (MCF-7 [2]; MCF-7, 10, 2, and 0.4 µg/mL) | percentage of survival (BT-549 [3]; BT-549, 0.08 µg/mL) | Potency compared to control POD (BT-549 [3]) | Potency compared to control VP-16 (BT-549 [3]) | IC50 (BT-549 [3]) | Selectivity index (MCF-7 [4]) | percentage of survival (MCF-7 [4]; MCF-7, 0.08 µg/mL) | Potency compared to control POD (MCF-7 [4]) | Potency compared to control VP-16 (MCF-7 [4]) | IC50 (MCF-7 [4]) | Selectivity index (MDA-MB-231 [5]) | percentage of survival (MDA-MB-231 [5]; MDA-MB-231, 0.08 µg/mL) | percentage of survival (MDA-MB-231 [5]; MDA-MB-231, 0.4 µg/mL) | Potency compared to control POD (MDA-MB-231 [5]) | IC50 (MDA-MB-231 [5]) | percentage of survival (MCF-10A [7]) | percentage of recovery (MCF-10A [8]; MCF-10A) | percentage of recovery (MDA-MB-231 [9]; MDA-MB-231, 0.4 µg/mL) | effect on proliferation and recovery after treatment (MDA-MB-231 [9]; MDA-MB-231, 10 and 2 µg/mL) | other results |
| --- | --- | --- | --- | --- | --- | --- | --- | --- | --- | --- | --- | --- | --- | --- | --- | --- | --- | --- | --- | --- | --- |
| COc1cc([C@@H]2c3cc4c(cc3[C@H](OC(C)=O)[C@H]3COC(=O)[C@H]23)OCO4)cc(OC)c1OC [Compound 2, acetylpodophyllotoxin] | 209% ± 12.4% | dose-dependently inhibited the proliferation and the recovery of cells | 96% ± 5.5% | 0.465 | 14.1 and 14.151 | 11 ± 4 nM | 2.42 | 121% ± 10.8% | 0.135 | 0.942 | 132 ± 17 nM | 1.77 | 101% ± 5.7% | 21% ± 0.6% | 0.136 | 180 ± 3 nM | 61% ± 7.8% | 85% ± 4.5% | 36% ± 16.8% | completely inhibited proliferation and prevented recovery | inhibitory activity against TDP1 [1]: inhibitory activity; percentage of survival (BT-549 [3]; BT-549, 0.4 µg/mL): 61% ± 10.6%; selectivity according to the selectivity criteria (SI ≥ 10 selective) (BT-549 [3]; BT-549 vs MCF-10A, in words): selective compound; effect on anthrax lethal toxin internalization (anthrax lethal toxin): interferes in the internalization process; Potency compared to control VP-16 (MDA-MB-231 [5]): 0.217; percentage of recovery (BT-549 [6]; BT-549, 0.4 µg/mL): around 114% ± 18.5%; percentage of recovery (BT-549 [6]; BT-549, 0.8 µg/mL (same concentrations)): ~191% ± 27.1%; effect on proliferation and recovery after treatment (BT-549 [6]; BT-549, 10 and 2 µg/mL): completely inhibited proliferation and prevented recovery; Potency compared to control POD (MCF-10A [7]): 0.062; Potency compared to control VP-16 (MCF-10A [7]): 0.147; IC50 at 72 h (in vitro; [12]): 318 ± 12 nM; effect on proliferation and recovery after treatment (MCF-10A [8]; MCF-10A, 10, 2, and 0.4 µg/mL): dose-dependently inhibited the proliferation and the recovery of cells; percentage of recovery (MDA-MB-231 [9]; MDA-MB-231, 0.8 µg/mL): 194% ± 14.7% |
| COc1ccc([C@@H]2c3cc4c(c(OC)c3C[C@H]3COC(=O)[C@@H]32)OCO4)cc1OC [Compound 1, 5′-demethoxy-β-peltatin-A-methylether] | 172% ± 24.5% | dose-dependent cytotoxic effect at concentrations of 10, 2, and 0.4 µg/mL, which persisted after removal of the treatment | 82% ± 15.7% | 0.004 | 0.126 | 1260 nM and 1200 nM and 1270 nM | 0.02 | 130% ± 18.55% | 0.002 | 0.017 | 7220 nM and 7200 nM | 0.06 | 96% ± 6.9% | 28% ± 3.1% | 0.010 | 2440 nM and 2400 nM | 61% ± 7.9% | 83% ± 3.3% | 49% ± 18.6% | inhibited proliferation and blocked recovery | Selectivity index (BT-549 [3]): 0.11; Potency compared to control VP-16 (MDA-MB-231 [5]): 0.016; percentage of recovery (BT-549 [6]; BT-549, 0.08 µg/mL): 124% ± 9.7%; effect on proliferation and recovery after treatment (BT-549 [6]; BT-549, 10, 2, and 0.4 µg/mL): dose-dependent cytotoxic effect at concentrations of 10, 2, and 0.4 µg/mL, which persisted after removal of the treatment; IC50 (MCF-10A [7]; read-out: Cytotoxic activity IC50, 72 h, mean of three independent experiments ± S.D.): 137 ± 15 nM; Potency compared to control POD (MCF-10A [7]): 0.144; Potency compared to control VP-16 (MCF-10A [7]): 0.341; IC50 at 72 h (in vitro; [12]): 130 nM; effect on proliferation and recovery after treatment (MCF-10A [8]; MCF-10A, 10, 2, and 0.4 µg/mL): dose-dependent cytotoxic effect at concentrations of 10, 2, and 0.4 µg/mL, which persisted after removal of the treatment; percentage of recovery (MDA-MB-231 [9]; MDA-MB-231, 0.08 µg/mL): 184% ± 6.4% |
| COc1cc([C@@H]2c3cc4c(cc3[C@@H](O[C@@H]3O[C@@H]5CO[C@@H](C)O[C@H]5[C@H](O)[C@H]3O)[C@H]3COC(=O)[C@H]23)OCO4)cc(OC)c1O [VP-16, etoposide, reference compound] | 183% ± 7.4% | did not recover proliferation after treatment | 67% ± 7.5% |  |  | 160 ± 10 nM | 0.38 | 71% ± 20.7% |  |  | 124 ± 26 nM | 1.20 | 82% ± 5.6% | 48% ± 2.4% |  | 38 ± 4 nM | 46% ± 2.8% | 79% ± 5.1% | 98% ± 16.1% | caused inhibition of proliferation and cell recovery | Selectivity index (BT-549 [3]): 0.29; percentage of recovery (BT-549 [6]; BT-549, 0.08 µg/mL): 101% ± 11.7%; effect on proliferation and recovery after treatment (BT-549 [6]; BT-549, 10, 2, and 0.4 µg/mL): did not recover proliferation after treatment; IC50 at 72 h (in vitro; MCF-10A cells, Cytotoxic activity IC50, MCF-10A, 72 h, mean of three independent experiments ± S.D.): 47 ± 9 nM; selectivity in the selectivity analysis [10]: non-selective compound; effect on proliferation and recovery after treatment (MCF-10A [8]; MCF-10A, 10, 2, and 0.4 µg/mL): did not recover proliferation after treatment; percentage of recovery (MDA-MB-231 [9]; MDA-MB-231, 0.08 µg/mL): 160% ± 7.4% |
| COc1cc([C@@H]2c3cc4c(cc3[C@H](O)[C@H]3COC(=O)[C@H]23)OCO4)cc(OC)c1OC [POD, Podophyllotoxin, reference compound] |  |  |  |  |  | 5 ± 1 nM | 1.11 |  |  |  | 18 ± 1 nM | 0.81 |  |  |  | 24 ± 6 nM |  |  |  |  | effect on proliferation and recovery after treatment (MCF-7 [2]; MCF-7, different POD concentrations): arrest of cell proliferation, which persisted even after the toxic agent was removed; effect on proliferation and recovery after treatment (BT-549 [6]; BT-549, different POD concentrations): arrest of cell proliferation, which persisted even after the toxic agent was removed; survival (MCF-10A [7]; even at high concentrations (10, 2, 0.4, 0.08, and 0.016 µg/mL)): about 20%; IC50 at 72 h (in vitro): 20 ± 8 nM; selectivity in the selectivity analysis [10]: non-selective activity; effect on proliferation and recovery after treatment (MCF-10A [8]; MCF-10A, different POD concentrations): arrest of cell proliferation, which persisted even after the toxic agent was removed; effect on proliferation and recovery after treatment (MDA-MB-231 [9]; MDA-MB-231, different POD concentrations): arrest of cell proliferation, which persisted even after the toxic agent was removed |
| COc1cc(C2=C3C(=O)OC[C@@H]3[C@@H](OC(C)=O)c3cc4c(cc32)OCO4)cc(OC)c1OC [Compound 4, 7′,8′-dehydroacetylpodophyllotoxin] | 177% ± 15.6% |  | 74% ± 7.4% | 0.086 | 2.6 and 2.604 |  | 1.32 | 96% ± 13.5% | 0.050 | 0.351 | 350 nM and 353 nM | 2.90 | 93% ± 6.9% | 57% ± 1.4% | 0.151 | 160 nM and 161 nM | about 55% ± 17.2% | 160% ± 21% | 75% ± 12.2% | inhibitory effect on the survival and recovery | percentage of recovery (MCF-7 [2]; MCF-7, 0.4 µg/mL): 57% ± 14.5%; percentage of recovery (MCF-7 [2]; MCF-7, 2 µg/mL): 29% ± 0.7%; percentage of survival (BT-549 [3]; BT-549, 0.4 µg/mL): 48% ± 8.8%; Selectivity index (BT-549 [3]): 7.62; percentage of survival (MCF-7 [4]; MCF-7, 0.4 µg/mL): 21% ± 7.2%; percentage of survival (MCF-7 [4]; MCF-7, 2 µg/mL): 11% ± 7.6%; Potency compared to control VP-16 (MDA-MB-231 [5]): 0.242; percentage of recovery (BT-549 [6]; BT-549, 0.08 µg/mL): 176% ± 18%; percentage of recovery (BT-549 [6]; BT-549, 0.4 µg/mL): 98% ± 27.9%; effect on proliferation and recovery after treatment (BT-549 [6]; BT-549, 10 and 2 µg/mL): inhibitory effect on the survival and recovery; Potency compared to control POD (MCF-10A [7]): 0.042; Potency compared to control VP-16 (MCF-10A [7]): 0.100; IC50 at 72 h (in vitro; [12]): 468 ± 2 nM; percentage of recovery (MDA-MB-231 [9]; MDA-MB-231, 0.08 µg/mL): 180% ± 13.5%; water solubility [11]: low water solubility |
